From patent US5684026A, “Aminocyclopentane derivative” (priority 1994, dated 1997)
Where two headings read alike, the source gives them in different places.

What was measured:
Format in all cases: biochemical
[1] = biological target: T1, α-Glucosidase (Baker's yeast, EC 3.2.1.20) (Saccharomyces cerevisiae, UniProt P53341); assay: α-Glucosidase enzyme inhibition assay (p-nitrophenyl α-D-glucopyranoside); conditions: for inhibitory activity against α-glucosidase (in words): compared with deoxynojirimycin, summary of Tables 1 and 2
T1 construct: purchased Sigma; host or cells: Baker's yeast
Experimental: (§1) By using a 96-well microplate, the absorbance (at 405 nm) of liberated p- or o-nitrophenol was measured with a microplate reader (MPR-4Ai, manufactured by Tosoh Corporation).
(§2) Incubation was carried out at 37° C. by using a natural incubator (Compact NIB-10, manufactured by Iwaki Glass Co., Ltd.).
(§3) The enzymes employed herein [α-glucosidase (Baker's yeast), β-glucosidase (Almonds), α-galactosidase (E. coli), β-galactosidase (E. coli) and β-galactosidase (Bovine Liver)] were all purchased from Sigma.
(§4) The substrates (p- or o-nitrophenylglycoside) of these enzymes were all purchased from Sigma.
1) α-Glucosidase (Baker's yeast, EC 3.2.1.20) [described in H. Halvorson and L. Ellias, Biochim. Biophys. Acta, 30, 28-40 (1958)]
Into each well were introduced an aqueous solution of a sample (1 μl), a 0.66 mM solution of p-nitrophenyl α-D-glucopyranoside in a buffer (98 μl) and a (0.4 mg/ml) enzyme solution in the buffer (1 μl) to give a total volume of 100 μl. After incubating at 37° C. for 30 minutes, the reaction was ceased by adding a 1M aqueous solution of sodium carbonate (100 μl). Then the absorbance (A405) of p-nitrophenol liberated by this enzyme reaction was measured. To give the blank absorbance (Ablank), the sample (1 μl) and the substrate (99 μl) were incubated in the same manner and an aqueous solution of sodium carbonate (100 μl) was added followed by the measurement of the absorbance. […] The sample at each concentration, the blank and the control were treated each in two wells at the same time. As the buffer, a 0.1M phosphate buffer solution (pH 6.8, prepared from KH2 PO4 and K2 HPO4) was employed.

[2] = biological target: T2, α-glucosidase I (Baker's yeast) (Saccharomyces cerevisiae, UniProt P53008); assay: Inhibitory activity on α-glucosidase I (Ki)
T2 construct: made in house; host or cells: Baker's yeast (native enzyme, prepared by the cited method)
T2 sequence (P53008 25-833 limits assumed): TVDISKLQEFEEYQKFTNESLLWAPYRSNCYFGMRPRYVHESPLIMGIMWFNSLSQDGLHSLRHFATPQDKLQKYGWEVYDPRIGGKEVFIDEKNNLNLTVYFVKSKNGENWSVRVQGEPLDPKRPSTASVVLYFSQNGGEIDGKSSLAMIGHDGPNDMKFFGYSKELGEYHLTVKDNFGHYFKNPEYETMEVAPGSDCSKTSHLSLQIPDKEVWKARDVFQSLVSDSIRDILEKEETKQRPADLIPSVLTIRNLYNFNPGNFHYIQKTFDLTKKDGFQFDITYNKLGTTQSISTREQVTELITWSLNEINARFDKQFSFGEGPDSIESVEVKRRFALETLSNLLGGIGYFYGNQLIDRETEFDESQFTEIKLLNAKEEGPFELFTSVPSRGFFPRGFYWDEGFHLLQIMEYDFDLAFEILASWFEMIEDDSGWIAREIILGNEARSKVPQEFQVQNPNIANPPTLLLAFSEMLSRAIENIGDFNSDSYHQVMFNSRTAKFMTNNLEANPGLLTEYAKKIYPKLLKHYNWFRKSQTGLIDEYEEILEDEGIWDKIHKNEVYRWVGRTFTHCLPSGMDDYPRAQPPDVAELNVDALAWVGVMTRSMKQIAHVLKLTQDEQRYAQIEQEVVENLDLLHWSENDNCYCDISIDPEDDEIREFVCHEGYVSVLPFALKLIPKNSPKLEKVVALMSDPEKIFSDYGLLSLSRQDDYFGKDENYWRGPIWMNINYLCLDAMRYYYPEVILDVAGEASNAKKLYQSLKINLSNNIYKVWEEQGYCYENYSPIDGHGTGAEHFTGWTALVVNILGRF
Experimental: The α-glucosidase I (Baker's yeast) and its substrate (α-D-Glcl→2α-D-Glcl→3α-D-Glc-O(CH2)6 COOCH3) employed herein were prepared in accordance with the method of I. Neverova et al., Anal. Biochem., 222, 190-196 (1994).
The following measurements were performed by the methods described in this literature.
Namely, 25 μl of a buffer solution containing α-glucosidase I was added to a microtube containing the above-mentioned sample and the substrate (α-D-Glcl→2α-D-Glcl→3α-D-Glc-O(CH2)6 COOCH3). After incubating at 37° C. for 1 hour, a 1.25M tris hydrochloride buffer solution (pH 7.6, 25 μl) was added to thereby cease .the reaction. Then the reaction mixture was transferred onto a microplate followed by the addition of 250 μl of a reaction buffer solution [developing solution; 1M tris hydrochloride buffer solution (pH 7.2) containing glucose oxidase (5 units/ml, manufactured by Sigma), horseradish peroxidase (1 purpurogallin units, manufactured by Sigma) and o-dianisidine dihydrochloride (40 μg/ml)]. Then the mixture was incubated at 37° C. for 30 minutes or until an increase in the absorbance attained a plateau. Then the absorbance (A450-650) of the o-dianisidine formed and oxidized by this enzyme reaction was measured. As a blank, the above reaction was repeated but adding neither the above-mentioned sample nor substrate and the absorbance was measured. Also, the above-mentioned reaction buffer solution was added to D-glucose of a known concentration and the resulting mixture was incubated followed by the measurement of the absorbance to thereby examine a relationship between D-glucose concentration and absorbance. Each measurement was effected in two wells at the same time.
Based on the above-mentioned relationship between D-glucose concentration and absorbance, the amount of glucose liberated from the substrate due to the enzyme reaction of α-glucosidase I in the presence of the sample was determined. From the result thus obtained, Km was determined and then Ki was determined from the sample amount and the Km value.

[3] = biological target: β-Glucosidase (Almonds, EC 3.2.1.21); assay: β-Glucosidase enzyme inhibition assay (p-nitrophenyl β-D-glucopyranoside); conditions: for IC50: pH 5.0, 37° C., 45 minutes
Experimental: as §1, §2, §3, §4
2) β-Glucosidase (Almonds, EC 3.2.1.21) [described in A. Kobayashi, Agr. Biol. Chem., 26, 203-207 (1962)]
Into each well were introduced an aqueous solution of a sample (1 μl), a 0.33 mM solution of p-nitrophenyl β-D-glucopyranoside in a buffer (98 μl) and a (0.4 mg/ml) enzyme solution in the buffer (1 μl) to give a total volume of 100 μl. After incubating at 37° C. for 45 minutes, the reaction was ceased by adding a 1M aqueous solution of sodium carbonate (100 μl). Then the absorbance (A405) of p-nitrophenol liberated by this enzyme reaction was measured. To give the blank absorbance (Ablank), the sample (1 μl) and the substrate (99 μl) were incubated in the same manner and an aqueous solution of sodium carbonate (100 μl) was added followed by the measurement of the absorbance. […] As the buffer, a 0.1M acetate buffer solution (pH 5.0, prepared from NaOAc and AcOH) was employed. The IC50 was determined in the same manner as employed in the case of α-glucosidase.

[4] = biological target: T3, β-Galactosidase (E. Coli, EC. 3.2.1.23) (Escherichia coli, UniProt P00722); assay: β-Galactosidase (E. coli) enzyme inhibition assay (o-nitrophenyl β-D-galactopyranoside)
T3 construct: purchased Sigma; host or cells: E. coli
Experimental: as §1, §3, §4
4) β-Galactosidase (E. Coli, EC. 3.2.1.23) [described in G. R. Craven, E. Steers, Jr. and C. B. Anfinsen, J. Biol. Chem., 240, 2468-2477 (1965)]
Into each well were introduced an aqueous solution of a sample (2 μl), a buffer (153 μl), a 20 mM solution of o-nitrophenyl β-D-galactopyranoside in a buffer (25 μl), a 100 mM 2-mercaptoethanol (10 μl) and a (10 μg/ml) enzyme solution in the buffer (10 μl) to give a total volume of 200 μl. After incubating at room temperature (20°-30° C.) for 30 minutes, the absorbance (A405) of o-nitrophenol liberated by this enzyme reaction was measured. To give the blank absorbance (Ablank), the sample (2 μl), the substrate (25 μl), the buffer solution (163 μl) and 2-mercaptoethanol (10 μl) were incubated in the same manner followed by the measurement of the absorbance. To give the control absorbance (Acontrol), on the other hand, water (2 μl), the substrate (25 μl), the buffer solution (153 μl), 2-mercaptoethanol (10 μl) and the enzyme solution (10 μl) were incubated in the same manner followed by the measurement of the absorbance. A 50 mM phosphate buffer solution (pH 7.3, prepared from KH2 PO4 and K2 HPO4, containing 1.3 mM of MgCl2) was employed as the buffer for the enzyme reaction. The IC50 was determined in the same manner as employed in the case of α-glucosidase.

[5] = tested on: α-Galactosidase (E. Coli, EC. 3.2.1.22); assay: α-Galactosidase enzyme inhibition assay (p-nitrophenyl α-D-galactopyranoside); conditions: pH 6.5, room temperature, 15 minutes
Experimental: as §1, §3, §4
3) α-Galactosidase (E. Coli, EC. 3.2.1.22) [described in H. Suzuki, S-C. Li and Y-T. Li, J. Biol. Chem., 245, 781-786 (1970)]
Into each well were introduced an aqueous solution of a sample (1 μl), a buffer (74 μl), a 9.9 mM solution of p-nitrophenyl α-D-galactopyranoside in a buffer (20 μl) and a (50 μg/ml) enzyme solution in the buffer (5 μl) to give a total volume of 100 μl. After incubating the resulting mixture at room temperature (20°-30° C.) for 15 minutes, the reaction was ceased by adding a 0.2M borate buffer solution (pH 9.8, prepared from NaOH and H3 BO3, 100 μl). Then the absorbance (A405) of p-nitrophenol liberated by this enzyme reaction was measured. To give the blank absorbance (Ablank), the sample (1 μl), the substrate (20 μl) and the buffer solution (79 μl) were incubated in the same manner and the 0.2M borate buffer solution (100 μl) was added followed by the measurement of the absorbance. To give the control absorbance ([…]), on the other hand, water (1 μl), the substrate (20 μl), the buffer solution (74 μl) and the enzyme solution (5 μl) were incubated in the same manner and the borate buffer solution (100 μl) was added followed by the measurement of the absorbance. A 0.1M phosphate buffer solution (pH 6.5, prepared from KH2 PO4 and K2 HPO4) was employed as the buffer for the enzyme reaction. The IC50 was determined in the same manner as employed in the case of α-glucosidase.

[6] = α-glucosidase I, substrate 0.25-4.0 mM, 37° C., 1 hour, read-out: Ki
[7] = pH 6.8, 37° C., 30 minutes, read-out: IC50 (M) α-Glucosidase (Baker's yeast)

T1 sequence (P53341 whole entry): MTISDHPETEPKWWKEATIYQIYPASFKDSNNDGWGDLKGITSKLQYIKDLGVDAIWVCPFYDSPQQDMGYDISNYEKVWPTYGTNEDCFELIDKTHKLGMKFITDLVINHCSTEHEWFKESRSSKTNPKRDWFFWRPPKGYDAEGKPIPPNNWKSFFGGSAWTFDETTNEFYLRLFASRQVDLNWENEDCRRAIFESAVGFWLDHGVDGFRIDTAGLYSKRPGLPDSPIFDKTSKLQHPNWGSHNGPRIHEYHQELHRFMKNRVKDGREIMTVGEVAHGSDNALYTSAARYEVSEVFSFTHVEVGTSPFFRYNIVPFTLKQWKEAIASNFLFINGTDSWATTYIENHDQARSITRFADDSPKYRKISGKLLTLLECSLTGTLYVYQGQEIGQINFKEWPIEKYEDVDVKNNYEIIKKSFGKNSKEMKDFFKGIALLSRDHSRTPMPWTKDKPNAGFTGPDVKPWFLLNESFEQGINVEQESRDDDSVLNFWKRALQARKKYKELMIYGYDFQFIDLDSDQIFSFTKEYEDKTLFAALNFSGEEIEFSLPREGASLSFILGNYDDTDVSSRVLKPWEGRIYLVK
T3 sequence (P00722 2-1024 limits assumed): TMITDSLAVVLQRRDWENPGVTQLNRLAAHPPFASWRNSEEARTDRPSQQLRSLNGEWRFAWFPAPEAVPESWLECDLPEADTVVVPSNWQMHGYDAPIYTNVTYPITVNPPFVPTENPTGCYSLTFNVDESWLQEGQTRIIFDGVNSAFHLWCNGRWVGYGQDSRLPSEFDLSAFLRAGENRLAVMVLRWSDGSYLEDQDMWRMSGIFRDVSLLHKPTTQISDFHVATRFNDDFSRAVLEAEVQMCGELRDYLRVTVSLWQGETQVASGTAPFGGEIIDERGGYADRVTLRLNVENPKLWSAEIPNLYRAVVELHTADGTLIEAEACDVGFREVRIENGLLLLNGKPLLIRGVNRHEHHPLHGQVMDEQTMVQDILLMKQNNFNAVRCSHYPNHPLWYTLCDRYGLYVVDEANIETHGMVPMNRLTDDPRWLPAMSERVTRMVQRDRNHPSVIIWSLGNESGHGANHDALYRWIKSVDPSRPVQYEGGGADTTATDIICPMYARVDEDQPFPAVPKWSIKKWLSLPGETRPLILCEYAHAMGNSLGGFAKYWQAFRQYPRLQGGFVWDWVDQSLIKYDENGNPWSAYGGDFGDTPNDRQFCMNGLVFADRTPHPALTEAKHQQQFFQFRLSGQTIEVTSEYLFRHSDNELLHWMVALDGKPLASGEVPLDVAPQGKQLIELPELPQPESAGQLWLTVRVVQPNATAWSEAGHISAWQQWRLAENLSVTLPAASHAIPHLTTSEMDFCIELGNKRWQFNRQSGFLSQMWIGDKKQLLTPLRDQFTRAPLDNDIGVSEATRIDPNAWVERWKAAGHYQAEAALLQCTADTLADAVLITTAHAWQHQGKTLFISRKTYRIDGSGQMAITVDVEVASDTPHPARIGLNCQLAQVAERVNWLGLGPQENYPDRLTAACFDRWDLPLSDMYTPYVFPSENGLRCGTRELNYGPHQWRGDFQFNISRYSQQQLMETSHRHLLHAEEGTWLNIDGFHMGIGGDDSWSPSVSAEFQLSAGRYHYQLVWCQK

Compound | inhibitory activity against α-glucosidase (in words) [1] | IC50 [3] [µM] | Ki [2, 6] [µM] | IC50 [1, 7] [M] | also measured
CCCCN1C[C@H](O)[C@@H](O)[C@H](O)[C@H]1CO [N-B-DNJ, N-butyldeoxynojirimycin, reference compound] |  |  |  |  | IC50 [1]: 8e-05 M; Ki [2]: 3.6 µM
CCCCNC1=N[C@@H]2[C@H](O)[C@@H](O)[C@H](O)[C@]2(CO)O1 [Compound 2-2L, (1S,5R,6S,7R,8S)-1-hydroxymethyl-3-butylamino-2-oxa-4-azabicyclo[3.3.0]oct-3-ene-6,7,8-triol] | remarkably strong inhibitory activities | > 300 | 4.2 |  | inhibitory activity against β-glucosidase (in words) ([3]; summary of Table 1): weak inhibitory activities
trehasolamine [reference compound] |  | 9.9 | 1500 | 0.0005 | 
CCCCN(CCCC)[C@@H]1[C@H](O)[C@@H](O)[C@H](O)[C@@]1(O)CO [d-1, 1L-(1,2,4,5/3)-5-dibutylamino-1-hydroxymethyl-1,2,3,4-cyclopentanetetraol] | remarkably strong inhibitory activities | 130 |  | 5e-07 | 
N[C@@H]1[C@H](O)[C@@H](O)[C@H](O)[C@@]1(O)CO [d, 1L-(1,2,4,5/3)-5-amino-1C-hydroxymethyl-1,2,3,4-cyclopentanetetraol] | remarkably strong inhibitory activities |  | 300 |  | IC50 [1]: 4.02e-07 M; IC50 ([4]; pH 7.3, room temperature, 30 minutes, read-out: IC50 (M) β-Galactosidase (E. coli)): > 0.0003 M
OC[C@]12OC(Nc3ccccc3)=N[C@H]1[C@@H](O)[C@H](O)[C@H]2O [Compound 1-2D, (1R,5S,6R,7S,8R)-1-hydroxymethyl-3-phenylamino-2-oxa-4-azabicyclo[3.3.0]oct-3-ene-6,7,8-triol] |  | > 300 |  | 9.99e-07 | IC50 [5]: > 300 µM; IC50 [4]: > 0.0003 M
CCCCN[C@@H]1[C@H](O)[C@@H](O)[C@H](O)[C@@]1(O)CO [d-2, 1L-(1,2,4,5/3)-5-butylamino-1-hydroxymethyl-1,2,3,4-cyclopentanetetraol] | remarkably strong inhibitory activities | 3 |  | 1.7e-08 | 
